Measurements reported in US10925823B2, “Synergistic antioxidant compositions” (The Procter & Gamble Company, priority 2018, dated 2021).

Assay: Oxygen Radical Absorbance Capacity (ORAC) Peroxynitrite Assay
Details: Trolox equivalent; SIN-1 as peroxynitrite source, dihydrorhodamine-123 probe, 37° C.; FIG. 4
Excerpt: The ORAC assay is the most common method for assessing antioxidant activity. It is based on evaluating the capacity of a test material to protect a probe (e.g., a chromagen) from its damage by oxygen radicals (in this case, peroxynitrite). Results are expressed as micromole Trolox Equivalency per gram of the test material:
This methodology is further discussed in: “Development and validation of an improved oxygen radical absorbance capacity assay using fluorescein as the fluorescent probe.”; Ou, Boxin, Maureen Hampsch-Woodill, and Ronald L. Prior. Journal of agricultural and food chemistry 49.10 (2001): 4619-4626 incorporated herein by reference; and further in “Development and validation of oxygen radical absorbance capacity assay for lipophilic antioxidants using randomly methylated β-cyclodextrin as the solubility enhancer.”, Huang, Dejian, et al. Journal of Agricultural and Food Chemistry 50.7 (2002): 1815-1821, incorporated herein by reference.
Experimental Methodology: The ORAC Peroxynitrite measures the peroxynitrite radical. […] Dihydrorhodamine-123 is the chosen target protein, whose loss of fluorescence (with excitation at 485 nm and emission at 528 nm) is an indication of the extent of damage from its reaction with the peroxynitrite radical. […] Kinetic fluorescence profile is detected using Biotek plate reader with excitation at 485 nm and emission at 528 nm, at 37° C. […]

[O-]n1ccccc1=S.[O-]n1ccccc1=S.[Zn+2] [ZPT, zinc salt of 1-hydroxy-2-pyridinethione]
ORAC peroxynitrite antioxidant activity: only individual material that showed appreciable activity
